Measurements: PMC5399635 (The Journal of Pharmacology and Experimental Therapeutics, 2017)
Structures can show the parent of a compound that is named as a salt. Where two headings read alike, the source gives them in different places.

How the values were obtained:
[1] = rat, in vivo, 30 s, 20 μM, pH 7.4
[2] = molecular target: T1, human µ-opioid receptor (Homo sapiens, UniProt P35372); assay: [35S]GTPγS binding, Schild-type antagonism of morphine (CHO-K1 membranes)
[3] = molecular target: T2, rat κ-opioid receptor (Rattus norvegicus, UniProt P34975); assay: Radioligand binding, κ-opioid receptor ([3H]U69593); details: cloned rat κ-opioid receptors; read-out: geometric mean Ki
T2 construct: expressed in transfected cells; host or cells: CHO cells
T2 sequence (P34975 whole entry): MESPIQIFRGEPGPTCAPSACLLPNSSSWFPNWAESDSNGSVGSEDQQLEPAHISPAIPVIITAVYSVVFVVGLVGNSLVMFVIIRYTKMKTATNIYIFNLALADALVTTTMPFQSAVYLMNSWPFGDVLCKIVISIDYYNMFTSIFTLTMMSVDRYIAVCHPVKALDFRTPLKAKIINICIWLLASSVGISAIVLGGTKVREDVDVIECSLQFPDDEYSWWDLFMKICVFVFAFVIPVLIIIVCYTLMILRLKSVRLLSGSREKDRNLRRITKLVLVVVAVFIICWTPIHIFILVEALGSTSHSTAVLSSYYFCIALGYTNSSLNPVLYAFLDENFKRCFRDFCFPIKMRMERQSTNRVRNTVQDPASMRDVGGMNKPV
Method: Competitive inhibition studies were performed on cloned opioid receptors expressed in membranes of Chinese hamster ovary (CHO) cells and conducted in triplicate (n = 3 independent experiments).
Radioligand binding assays were performed to evaluate the ability of these agents to inhibit specific radioligand binding to cloned opioid receptor subtypes. Half-maximal inhibitory concentration (IC50), equilibrium dissociation constant for the inhibitor (Ki), and negative log of the equilibrium dissociation constant for the inhibitor (pKi) values were obtained. The receptor binding methods used for µ ([Zhang et al., 1998])-, δ ([Simonin et al., 1994])-, and κ ([Meng et al., 1993])-opioid receptors have been described previously, with the exception that 100 mM NaCl was added to the incubation buffer in the µ-opioid receptor binding assay. All assays were conducted in 200-µl volume. All assay incubations were terminated by filtration, and bound radioligand was quantitated by liquid scintillation spectrometry. The IC50 values were determined by nonlinear regression analysis of the competition curves generated with the mean of duplicate values using Hill equation curve fitting. The inhibition constants (Ki) were calculated using the Cheng-Prusoff equation. The pKi results from three independent experiments were analyzed for significant differences by one-way analysis of variance (ANOVA) followed by Bonferroni multiple comparison test.

[4] = molecular target: T1, human µ-opioid receptor; assay: Radioligand binding, µ-opioid receptor ([3H]diprenorphine); design: expressed in transfected cells; b18 says CHO cells; details: read-out: geometric mean Ki
[5] = tested on: morphine-induced inhibition of gastrointestinal transit; assay: Gastrointestinal transit model (charcoal meal), antagonism of morphine
[6] = tested on: morphine-induced antinociception; assay: Hot plate model of nociception, antagonism of morphine
[7] = In situ rat brain perfusion model; details: 30 s perfusion, test compound 20 μM, atenolol 50 μM, antipyrine 5 μM, mean ± S.D.
[8] = in vitro; details: human

T1 sequence (P35372 whole entry): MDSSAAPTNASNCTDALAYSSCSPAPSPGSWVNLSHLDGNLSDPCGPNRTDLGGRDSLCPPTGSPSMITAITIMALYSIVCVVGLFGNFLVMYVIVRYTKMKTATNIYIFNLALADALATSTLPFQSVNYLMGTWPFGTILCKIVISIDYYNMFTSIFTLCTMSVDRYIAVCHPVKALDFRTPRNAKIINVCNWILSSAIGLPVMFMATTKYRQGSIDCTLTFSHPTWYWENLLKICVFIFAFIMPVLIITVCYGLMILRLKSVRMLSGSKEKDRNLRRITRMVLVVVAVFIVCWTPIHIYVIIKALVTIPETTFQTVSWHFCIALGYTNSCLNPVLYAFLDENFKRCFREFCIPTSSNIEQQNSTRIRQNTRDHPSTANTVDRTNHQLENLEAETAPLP

In the case of `Cc1cc(=O)n(-c2ccccc2)n1C` [Antipyrine, antipyrine], the “Brain Uptake” value [1] is reported as 28.2 ± 14.3 pmol/g brain/s.

In the case of `C[N@+]1(CC2CC2)CC[C@]23c4c5ccc(O)c4O[C@H]2C(=O)CC[C@@]3(O)[C@H]1C5` [Methylnaltrexone, Methylnaltrexone bromide], the Kb [2] is reported as 0.037 µM, the pA2 ([2]; versus morphine, 3 independent experiments) is reported as 7.43 ± 0.02 and the Schild slope ([2]; versus morphine, pooled 3 experiments) is reported as “–0.982”. It also gave a Ki [3] of 0.0109 µM and a Ki [4] of 0.0221 µM.

In the case of `C=CCN1CC[C@]23c4c5ccc(O)c4O[C@H]2C(=O)CC[C@@]3(O)[C@H]1C5` [Naloxone, naloxone hydrochloride, reference compound], the “oral dose that completely reversed the effect of morphine” value ([5]; GI transit assay, rat) is reported as no less than 10 mg/kg, the ED50 ([5]; Rattus norvegicus, read-out: ED50, antagonism of morphine in GI transit) is reported as 0.69 mg/kg and the ED50 ([6]; Rattus norvegicus, po, read-out: ED50, antagonism of morphine analgesia) is reported as 1.14 mg/kg. The “oral dose that completely reversed the analgesic effect of morphine” value ([6]; hot plate assay, rat) was no less than 10 mg/kg, the “Brain Uptake” value [7] was 60.2 ± 13.7 pmol/g brain/s and the Papp A→B at 2 h, 10 μM ([8]; Caco-2, pH 7.4, Papp A→B, no P-gp inhibitor, mean of 3 experiments) was 27.3 ×10⁻⁶ cm/s. It also gave a Papp B→A at 2 h, 10 μM ([8]; Caco-2, pH 7.4, Papp B→A, no P-gp inhibitor, mean of 3 experiments) of 25 ×10⁻⁶ cm/s, a Papp A→B at 2 h, 10 μM ([8]; Caco-2, pH 7.4, with cyclosporin A, Papp A→B, Cyclosporin A) of 28.4 ×10⁻⁶ cm/s and a Papp B→A at 2 h, 10 μM ([8]; Caco-2, pH 7.4, with cyclosporin A, Papp B→A, Cyclosporin A) of 23.7 ×10⁻⁶ cm/s. It also gave a Papp A→B at 2 h, 10 μM ([8]; Caco-2, pH 7.4, with elacridar, 0.5 μM, Papp A→B, Elacridar) of 24.8 ×10⁻⁶ cm/s, a Papp B→A at 2 h, 10 μM ([8]; Caco-2, pH 7.4, with elacridar, 0.5 μM, Papp B→A, Elacridar) of 27.3 ×10⁻⁶ cm/s and a Papp A→B at 2 h, 10 μM ([8]; Caco-2, pH 7.4, with verapamil, 100 μM, Papp A→B, Verapamil) of 24.5 ×10⁻⁶ cm/s. It also gave a Papp B→A at 2 h, 10 μM ([8]; Caco-2, pH 7.4, with verapamil, 100 μM, Papp B→A, Verapamil) of 24.9 ×10⁻⁶ cm/s.
